Patent publication US8987249B2, “Substituted 2-Aza-bicyclo[2.2.1]heptane-3-carboxylic acid (benzyl-cyano-methyl)-amides inhibitors of Cathepsin C” (Boehringer Ingelheim International GmbH, priority 2013, dated 2015)

Assays:
[1] = molecular target: recombinant human DPPI (Cathepsin C) (Homo sapiens (Human), UniProt P53634); experiment: Inhibition of human DPPI (Cathepsin C); type: biochemical; details: substrate Gly-Arg-AMC
Method in brief: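 Fluorescence read after 30 min room-temperature turnover of 50 μM (final) substrate by recombinant human cathepsin C, pH 6.0 MES/NaCl/DTT/BSA buffer, quenched by Gly-Phe-DMK (1 μM final). Activity as percent of vehicle after background subtraction, used for IC50.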

in vitro = details: human, microsomes, pH 7.6
Method: (§1) Determination of Metabolic Stability with Human Liver Microsomes
(§2) The metabolic degradation of the test compound is assayed at 37° C. with pooled human liver microsomes. The final incubation volume of 100 μl per time point contains TRIS buffer pH 7.6 (0.1 M), magnesium chloride (5 mM), microsomal protein (1 mg/ml) and the test compound at a final concentration of 1 μM. Following a short preincubation period at 37° C., the reactions are initiated by addition of beta-nicotinamide adenine dinucleotide phosphate, reduced form (NADPH, 1 mM) and terminated by transferring an aliquot into acetonitrile after different time points. Additionally, the NADPH-independent degradation is monitored in incubations without NADPH, terminated at the last time point. The [%] remaining test compound after NADPH independent incubation is reflected by the parameter c (control) (metabolic stability). The quenched incubations are pelleted by centrifugation (10,000 g, 5 min). An aliquot of the supernatant is assayed by LC-MS/MS for the amount of parent compound.
(§3) The half-life (t½ INVITRO) is determined by the slope of the semilogarithmic plot of the concentration-time profile.

[2] = molecular target: recombinant human Cathepsin K (Homo sapiens (Human), UniProt P43235); experiment: Inhibition of human Cathepsin K; type: biochemical; details: substrate Z-Gly-Pro-Arg-AMC
Method in brief: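 Fluorogenic Z-Gly-Pro-Arg-AMC cleavage, 60 min at room temperature, after a 10 min enzyme–compound preincubation (enzyme 2 ng/μL; compound 0.1 nM–100 μM; 1% DMSO). Buffer pH 5.5 with sodium acetate, EDTA and L-cysteine; procathepsin first activated 30 min at pH 3.5. E64 (1 μM) stop; IC50 derived from percent of vehicle signal minus background (Ex 360/Em 460 nm).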

[3] = Determination of metabolic stability with human liver microsomes; details: pooled human liver microsomes; for half-life at 1 μM: human, pH 7.6
Method: as §1, §2, §3

recombinant human Cathepsin K, sequence (P43235 115-329): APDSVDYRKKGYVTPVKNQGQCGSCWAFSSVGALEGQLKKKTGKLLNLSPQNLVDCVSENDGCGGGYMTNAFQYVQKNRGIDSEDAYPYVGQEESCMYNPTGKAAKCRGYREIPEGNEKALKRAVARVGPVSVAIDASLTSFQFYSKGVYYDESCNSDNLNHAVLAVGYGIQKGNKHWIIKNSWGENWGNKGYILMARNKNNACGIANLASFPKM
recombinant human DPPI (Cathepsin C), sequence (P53634 231-394): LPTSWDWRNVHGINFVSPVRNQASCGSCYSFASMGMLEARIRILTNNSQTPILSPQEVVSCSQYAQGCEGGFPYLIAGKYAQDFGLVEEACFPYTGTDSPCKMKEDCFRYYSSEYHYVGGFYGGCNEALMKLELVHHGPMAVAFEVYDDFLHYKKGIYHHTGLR
recombinant human DPPI (Cathepsin C), sequence (P53634 395-463): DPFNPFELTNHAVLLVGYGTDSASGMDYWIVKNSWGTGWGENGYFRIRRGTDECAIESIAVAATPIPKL
recombinant human DPPI (Cathepsin C), sequence (P53634 25-134): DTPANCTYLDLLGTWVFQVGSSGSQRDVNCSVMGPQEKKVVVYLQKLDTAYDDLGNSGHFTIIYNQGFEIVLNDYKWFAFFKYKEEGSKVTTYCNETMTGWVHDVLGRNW

SMILES | IC50 [1] | half-life at 1 μM (in vitro) | IC50 [2] | half-life at 1 μM [3] | In vitro stability in human liver microsome incubations t½ ([3]; 1 μM test compound, 37° C., NADPH)
N#C[C@H](Cc1ccc(N2CCNCC2)cc1F)NC(=O)[C@H]1N[C@@H]2CC[C@H]1C2 [Example 204] | 24.5 nM | > 2.17 h | – | – | –
CN1CC=C(c2ccc(C[C@@H](C#N)NC(=O)[C@H]3N[C@@H]4CC[C@H]3C4)c(F)c2)CC1 [Example 223] | – | > 2.17 h | – | – | –
CN(C)CCN1C(=O)Cc2ccc(-c3ccc(C[C@@H](C#N)NC(=O)[C@H]4N[C@@H]5CC[C@H]4C5)c(F)c3)cc21 [Example 278] | 1 nM | > 2.17 h | 1200 nM | – | –
N#C[C@H](Cc1ccc(C2=CC3COCCN3CC2)cc1F)NC(=O)[C@H]1N[C@@H]2CC[C@H]1C2 (stereo partly drawn) [Example 282] | 3.7 nM | > 2.17 h | 1800 nM | – | –
CCN1CC=C(c2ccc(C[C@@H](C#N)NC(=O)[C@H]3N[C@@H]4CC[C@H]3C4)c(F)c2)CC1 [Example 320] | 9.6 nM | > 2.17 h | – | – | –
CN1CCC(C)(c2ccc(C[C@@H](C#N)NC(=O)[C@H]3N[C@@H]4CC[C@H]3C4)c(F)c2)CC1 [Example 321] | – | > 2.17 h | – | – | –
CN1CC2CCC(C1)N2c1ccc(C[C@@H](C#N)NC(=O)[C@H]2N[C@@H]3CC[C@H]2C3)c(F)c1 [Example 328] | 4.2 nM | > 2.17 h | 7700 nM | – | –
N#C[C@H](Cc1ccc(C2=CCN(C3CCOC3)CC2)cc1F)NC(=O)[C@H]1N[C@@H]2CC[C@H]1C2 (stereo partly drawn) [Example 332] | 12.9 nM | 1.67 h | 6200 nM | – | –
CN1C2CCC1CN(c1ccc(C[C@@H](C#N)NC(=O)[C@H]3N[C@@H]4CC[C@H]3C4)c(F)c1)C2 [Example 333] | 15.3 nM | > 2.17 h | 2400 nM | – | –
N#C[C@H](Cc1ccc(-c2ccc(=O)n(CC(F)F)c2)cc1F)NC(=O)[C@H]1N[C@@H]2CC[C@H]1C2 [Example 343] | 4.5 nM | – | 5300 nM | > 2.17 h | –
CN(C)C1CCCN(c2ccc(C[C@@H](C#N)NC(=O)[C@H]3N[C@@H]4CC[C@H]3C4)c(F)c2)C1 (stereo partly drawn) [Example 344, (1S,2S,4R)—N-[(1S)-1-cyano-2-[4-[3-(dimethylamino)-1-piperidyl]-2-fluoro-phenyl]ethyl]-3-azabicyclo[2.2.1]heptane-2-carboxamide] | 10 nM | – | 6200 nM | 1.83 h | –
CN(C)CC1CCCN(c2ccc(C[C@@H](C#N)NC(=O)[C@H]3N[C@@H]4CC[C@H]3C4)c(F)c2)C1 (stereo partly drawn) [Example 345] | 18.4 nM | – | 9200 nM | > 2.17 h | –
CN1CCC(N2C(=O)Cc3ccc(-c4ccc(C[C@@H](C#N)NC(=O)[C@H]5N[C@@H]6CC[C@H]5C6)c(F)c4)cc32)CC1 [Example 346] | 1 nM | – | 4000 nM | > 2.17 h | –
N#C[C@H](Cc1ccc(N2CC3CCN(C4CCOC4)C3C2)cc1F)NC(=O)[C@H]1N[C@@H]2CC[C@H]1C2 (stereo partly drawn) [Example 348] | 17.6 nM | – | 4300 nM | – | 2.17 h
CN1CCC2CN(c3ccc(C[C@@H](C#N)NC(=O)[C@H]4N[C@@H]5CC[C@H]4C5)c(F)c3)CC21 (stereo partly drawn) [Example 349] | 20.6 nM | – | 5000 nM | > 2.17 h | –
CN1CCC2(CC1)CC(c1ccc(C[C@@H](C#N)NC(=O)[C@H]3N[C@@H]4CC[C@H]3C4)c(F)c1)C2 [Example 358] | 22 nM | – | 9600 nM | > 2.17 h | –
CN1CCC2(C=C(c3ccc(C[C@@H](C#N)NC(=O)[C@H]4N[C@@H]5CC[C@H]4C5)c(F)c3)C2)CC1 [Example 359] | 8.8 nM | – | 6300 nM | > 2.17 h | –
